# Measured values from US11993594B2, “IRAK inhibitors and method for making and using” (Rigel Pharmaceuticals, Inc., priority 2016, dated 2024).
# Like-named read-outs stand apart in the source and are kept apart here.
# Assays:
# [1] = system: LPS induced IL-23 (p19/p40) in DC cells; assay: IL23-p19 ELISA, dendritic (DC) cells differentiated from human PBMC, LPS stimulated; format: cell-based; details: LPS 1 μg/ml, 18 hours, 10 pt
# Description: Compound Screening Using DC Cells
# Human PBMC cells (400 million) obtained from the vendor were transferred into a T-175 flask containing 15 ml RPMI media (10% FBS) and incubate for 2 hours at 37° C. After 2 hours, the media including floating cells was aspirated out carefully and 12 ml of fresh RPMI media (10% FBS) containing GMCSF (100 ng/ml) and IL4 (20 ng/ml) was added, and the flask was kept in a 37° C. incubator for 7 days.
# After 3 days, fresh GMCSF (100 ng/ml) and IL4 (20 ng/ml) were added to the flask and the incubation continued. After 7 days, the fully differentiated cells were harvested by spinning down (1200 rpm/5 min) and aspirating the media. The cells were suspended in fresh RPMI media (10% FBS) containing 50 ng/ml IFNγ (1000 U/ml) and then plated (50K/well in 100 μl) onto a white clear bottom 96 well plate and left in a 37° C. incubator for 24 hours.
# After 24 hours incubation, 100 μl of RPMI media was added containing 2× concentrated test compound per well to the above cell-culture media (final concentration becomes 1×) and the plates were pre-incubated for 1 hour at 37° C. before stimulating with LPS.
# After 1 hour compound pre-incubation, 10 μl per well of 20× concentrated LPS solution in RPMI media was added to give a final concentration of 1 μg/ml. The mixture was shaken and incubated the plates at 37° C. for an additional 18 hours.
# 155 μl of the supernatant was harvested from each well carefully (without the tip touching the bottom of the well) and to the remaining 50 μl/well of the cell culture plate was added 50 μl of Cell Titer Glo reagent. The mixture was incubated for 1-2 minutes on a shaker and the plate was read for luminescence intensity to determine the compound cytotoxicity. The cell culture supernatant collected above was used to carry out IL23 ELISA (65 μl—Supernatant) and IL10 ELISA (90 μl—Supernatant) as described below.
# Human IL-23 (p19/p40) ELISA Protocol (e-Biosciences)
# To 10.5 ml PBS add 50 μl of anti-IL23 (p19) was added capture antibody (2.5 μg/ml). The mixture was mixed well and 100 μl of the coating solution was added to each well of the 96 well white plates from Pierce. The wells were covered and incubated overnight at 4° C.
# The anti-IL23 (p19)-antibody-coated plates were washed 2× using TBST (use plate washer) and blocked using 200 μl of 0.5% Casein for 1.5 to 2 hours at room temperature with shaking.
# The plates were washed 2× using TBST and the supernatant was transferred (65 μl/well) to the above pre-blocked/IL23(p19)-antibody-coated 96 well plate, and incubated at room temperature for 1.5 hours with shaking.
# The plates were washed 4× using TBST (plate washer) and 100 μl/well detection antibody solution prepared from 2 μl of biotin labeled anti-IL-12 (p40/p70) antibody in 11 ml 1% BSA/PBS solution (1-5000 dilution) was added. The plates were incubated for 1 hour with shaking at Room temperature.
# Again, the plates were washed 4× with TBST and 100 μl of HRP labeled Streptavidin (R&D Systems) solution (10 μl/10 ml 1% BSA solution) was added, and the plates were incubated at room temperature for another 45 minutes with shaking.
# After 45 minutes, the plates were washed with TBST 4× and 100 μl/well Super Signal ELISA Pico Chemiluminescent Substrate from Pierce (3.5 ml A+3.5 ml B+3.5 ml MQ water) was added. The plates were shaken for 1-2 minutes then read on a plate reader. […]
# [2] = system: LPS Induced IL23p19 in THP-1 Cells; assay: LPS Induced IL23p19 in THP-1 Cells (with IFNγ Primed) Assay; format: cell-based, human; details: THP-1 cells primed with IFNγ 50 ng/mL, LPS 1 ug/mL, 18 hours, 10 pt, read-out: IL23-p19 ELISA, THP1-IFNγ, LPS, 10 pt EC50
# Description: LPS Induced IL23p19 in THP-1 Cells (with IFNγ Primed) Assay
# THP-1 Cells (ATCC, Cat #TIB-202), Dimethyl Sulfoxide (DMSO) (Sigma-Aldrich, Cat #D2650), RPMI 1640 (Cellgro, Cat #10-040-CM), Fetal Bovine Serum (Sigma, Cat #F4135), Albumin From Bovine Serum (BSA) (Sigma-Aldrich, Cat #A7906), LPS (Serotype K-235, Sigma, Product Number L 2143), IFNγ (Peprotech, Cat #300-02) Capture antibody: Human IL-23p19 ELISA (e-Bioscience, Cat. #14-7238-85), Detection antibody: Primary Mouse Biotinylated anti-human IL-12(p40/p70) (e-Bioscience, Cat. #13-7129-85), Secondary HRP-conjugated Streptavidin (R&D Systems, Cat #DY998), 1×PBST Washing Buffer (PBS-Tween tablet) (VWR International, Cat #80058-558), ELISA Blocking Buffer (PBS with 1% BSA), ELISA Dilution Buffer (PBS with 1% BSA), 384 Well Flat-Bottom, MaxiSorp Black Immuno Plates (Thermo Scientific, Cat #12-565-346), 384 Well Flat-Bottom, White Tissue Culture Plates (Thermo Scientific, Cat #12-565-343), Super Signal ELISA Pico Chemiluminescent Substrate (Thermo Scientific, Cat #37070), Cell Titer Glo reagent (Promega, Cat #G7573), Positive control, IKK2VI inhibitor (Calbiochem, Cat #401483), AquaMax 4000 plate washer (Molecular Devices), Luminometer, Wallac Victor2 1420 Multilabel Counter.
# On day 1, 50K/well THP-1 cells were seeded and primed with IFNγ (50 ng/mL) in 384-well plates for about 18 hours in RPMI media with 10% FBS. On day 2, the compound was serially diluted in DMSO from 5 mM in 3-fold dilutions, and then diluted 1:125 in RPMI media with 10% FBS. 50 μL/well 2× compound was added to 50 μL/well THP-1 cells (with IFNγ primed) in duplicate in 384 well tissue culture plates. The cells were pre-incubated with compound for 1 hour at 37° C., 5% CO2 before addition of 10 μL/well 11×LPS to give a final concentration of 1 ug/mL LPS. Day 3, after stimulation for 18 hours at 37° C., 5% CO2, the assay plate was centrifuged and 70 μL/well supernatant was harvested. IL-23p19 protein in 70 µL/well of supernatant was measured by sandwich ELISA, and 25 μl/well Cell Titer Glo reagent was added to the remaining cells to measure compound toxicity.
# Human IL-23p19 Sandwich ELISA:
# Maxisorp immuno ELISA plates were pre-coated with 25 μL/well of anti-IL-23p19 capture antibody (2.5 ug/mL) in PBS overnight at room temperature. After washing with 1×PBST, the plates were blocked using 100 μL/well of 1% BSA in PBS for 2 hours at room temperature. The plates were washed three times with 1×PBST and 70 μL/well supernatant were added. The plates were incubated at room temperature for 2 hours with shaking and washed three times with 1×PBST. 25 μL/well of biotin labeled anti-IL-12(p40/p70) detection antibody (100 ng/mL) in PBS with 1% BSA was added and the plates were incubated at room temperature for 2 hours with shaking. After washing three times with 1×PBST, 25 μL/well of streptavidin-HRP (1:200) in PBS with 1% BSA was added and the plates were incubated at room temperature for 20 minutes with shaking. The plates were washed three times with 1×PBST and 25 μL/well of Super Signal ELISA Pico Chemiluminescent Substrate were added. The plates were read with a luminometer, and the chemiluminescence values were entered into Athena (Rigel) for curve fitting, EC50 calculation, and database storage. […]
Compound,"EC50 ([1]; Table 1, IFNγ 50 ng/ml)","EC50 ([1]; Table 2, IFNγ 50 ng/ml)",EC50 ([2]; Table 1),EC50 ([2]; Table 2),"EC50 ([2]; Homo sapiens, Table 1)","EC50 ([1]; Table 3, IFNγ 50 ng/ml)",EC50 ([2]; Table 3)
"CCO[C@H]1CC[C@H](n2cc(NC(=O)c3coc(-c4cn[nH]c4)n3)c(-c3nc(F)ccc3F)n2)CC1 [Compound I-9, N-(3-(3,6-difluoropyridin-2-yl)-1-((1r,4r)-4-ethoxycyclohexyl)-1H-pyrazol-4-yl)-2-(1H-pyrazol-4-yl)oxazole-4-carboxamide]",172 nM,172 nM,22.8 nM,22.8 nM,,,
"CCO[C@H]1C[C@@H](n2cc(NC(=O)c3coc(-c4cn[nH]c4)n3)c(-c3nc(F)ccc3F)n2)C1 [Compound I-10, N-(3-(3,6-difluoropyridin-2-yl)-1-((1s,3s)-3-ethoxycyclobutyl)-1H-pyrazol-4-yl)-2-(1H-pyrazol-4-yl)oxazole-4-carboxamide]",30.9 nM,30.9 nM,69.9 nM,69.9 nM,,,
"O=C(Nc1cn([C@H]2CC[C@H](O)CC2)nc1-c1nc(F)ccc1F)c1coc(-c2cn[nH]c2)n1 [Compound I-11, N-(3-(3,6-difluoropyridin-2-yl)-1-((1r,4r)-4-hydroxycyclohexyl)-1H-pyrazol-4-yl)-2-(1H-pyrazol-4-yl)oxazole-4-carboxamide]",179 nM,179 nM,25.4 nM,25.4 nM,,,
"CCO[C@H]1CC[C@H](n2cc(NC(=O)c3coc(-c4cnn(COP(=O)(O)O)c4)n3)c(-c3nc(F)ccc3F)n2)CC1 [Compound I-12, (4-(4-((3-(3,6-difluoropyridin-2-yl)-1-((1r,4r)-4-ethoxycyclohexyl)-1H-pyrazol-4-yl)carbamoyl)oxazol-2-yl)-1H-pyrazol-1-yl)methyl dihydrogen phosphate]",2400 nM,2400 nM,177 nM,177 nM,,,
"CCO[C@H]1CC[C@H](n2cc(NC(=O)c3coc(-c4cn[nH]c4)n3)c(-c3ncc(F)cc3F)n2)CC1 [Compound I-13, N-(3-(3,5-difluoropyridin-2-yl)-1-((1r,4r)-4-ethoxycyclohexyl)-1H-pyrazol-4-yl)-2-(1H-pyrazol-4-yl)oxazole-4-carboxamide]",143 nM,143 nM,34.1 nM,34.1 nM,,,
"O=C(Nc1cn(CCOCC(F)(F)F)nc1-c1ccccn1)c1coc(-c2cn[nH]c2)n1 [Compound I-15, 2-(1H-pyrazol-4-yl)-N-(3-(pyridin-2-yl)-1-(2-(2,2,2-trifluoroethoxy)ethyl)-1H-pyrazol-4-yl)oxazole-4-carboxamide]",451 nM,,,,85.3 nM,,
"CCO[C@H]1CC[C@H](n2cc(NC(=O)c3coc(-c4cnn(COP(=O)(O)O)c4)n3)c(-c3cnccn3)n2)CC1 [Compound I-17, (4-(4-((1-((1r,4r)-4-ethoxycyclohexyl)-3-(pyrazin-2-yl)-1H-pyrazol-4-yl)carbamoyl)oxazol-2-yl)-1H-pyrazol-1-yl)methyl dihydrogen phosphate]",15.6 nM,15.6 nM,60.3 nM,60.3 nM,,,
"CCOC1CCC(n2cc(NC(=O)c3coc(-c4cnn(COP(=O)(O)O)c4)n3)c(-c3cnccn3)n2)CC1 (stereo not drawn) [Compound I-18, sodium (4-(4-((1-((1r,4r)-4-ethoxycyclohexyl)-3-(pyrazin-2-yl)-1H-pyrazol-4-yl)carbamoyl)oxazol-2-yl)-1H-pyrazol-1-yl)methyl phosphate]",25.6 nM,25.6 nM,83.3 nM,83.3 nM,,,
"O=C(Nc1cn(C2CCOCC2)nc1-c1ccccn1)c1coc(-c2cn[nH]c2)n1 [Compound I-20, 2-(1H-pyrazol-4-yl)-N-(3-(pyridin-2-yl)-1-(tetrahydro-2H-pyran-4-yl)-1H-pyrazol-4-yl)oxazole-4-carboxamide]",,,,,,135 nM,39.9 nM
"CCOCCn1cc(NC(=O)c2coc(-c3cn[nH]c3)n2)c(-c2ccccn2)n1 [Compound I-21, N-(1-(2-ethoxyethyl)-3-(pyridin-2-yl)-1H-pyrazol-4-yl)-2-(1H-pyrazol-4-yl)oxazole-4-carboxamide]",,,,,,170 nM,243 nM
"CCO[C@H]1C[C@@H](n2cc(NC(=O)c3coc(-c4cn[nH]c4)n3)c(-c3ccccn3)n2)C1 [Compound I-22, N-(1-((1s,3s)-3-ethoxycyclobutyl)-3-(pyridin-2-yl)-1H-pyrazol-4-yl)-2-(1H-pyrazol-4-yl)oxazole-4-carboxamide]",,,,,,36.9 nM,43.4 nM
